{
  "source": "paper PMC8607110",
  "about": "“Pyrazole Derivatives Induce Apoptosis via ROS Generation in the Triple Negative Breast Cancer Cells, MDA-MB-468” (Asian Pacific Journal of Cancer Prevention : APJCP, 2021)",
  "key": {"[1]": {"tested_on": "MDA-MB-468 cells", "assay": "Cell cycle analysis by PI staining and flow cytometry", "assay_type": "cell-based, human", "conditions": "14.97 μM, 24 h", "experimental": "Cell cycle analysis was conducted through taking advantage of PI staining and flow cytometry analysis. To evaluate cellular DNA levels, the cells stained with PI were subjected to ﬂow cytometric analyses. In this assay, six-well plates were loaded with 2 × 10^5 MDA-MB-468 cells / well. After incubation of the samples at 37°C for 24 h, cells were treated with 3f at concentrations of 14.7 μM followed 24 h incubation. Then, the effect of the drug became evident and cells collected by rinsing with PBS (two times), immobilizing with 70% ice-cold ethanol (for 3 h), and washing with PBS (two times). To resuspend the cells a mixture of 0.25 ml PBS containing 5 μl of 10 mg/ml RNase A and Triton X-100 (0.1%) including 10μl of PI (50 μg/ml) was used and incubation was performed at 37°C for 30 min in a dark place. The assessment of stain cells was carried out employing a FACS Calibur flow cytometer (BD Biosciences, San Jose, CA). The apoptotic rate of the cell population was measured by calculating the percentage of cells with sub-G1 DNA content."}, "[2]": {"tested_on": "MDA-MB-468 cells", "assay": "MTT cell viability assay, MDA-MB-468", "assay_type": "cell-based, human", "conditions": "mean ± SD of triplicate", "experimental": "(§1) The MDA-MB-468 cells were maintained in DMEM/Ham’s F12 supplemented with L-glutamine, with 10% fetal bovine serum and 1% penicillin/streptomycin. The AGO1522 cell line was cultured in DMEM/Low Glucose, with 10% fetal bovine serum and 1% penicillin/ streptomycin. Cells were incubated at 37°C, 5% CO2 and every 2-3 days at the confluency of 80%, the cells were harvested from the culture flask by Trypsin-EDTA.\n(§2) Cell viability was measured with the MTT assay. The reduction of the tetrazolium salt, to a blue formazan crystal is facilitated by mitochondrial dehydrogenase and NADPH-dependent cellular oxidoreductase enzymes (Abel and Baird, 2018). In the assay, an aliquot of 7.5 × 10^3 cells was seeded on the 96-well plates and allowed to attach overnight. Then, 11 Pyrazole derivatives (as shown in Table 1 and Figure S1) were added to the desired well with the final concentration of 3, 6.25, 12.5, 25, 50, 100 μM. After pre-treating cells for 24 and 48h, MTT (5 mg/ml in PBS) was added to each well and the cells were incubated for another 4 h at 37°C. In order to dissolve blue-colored formazan crystals, the entire medium was aspirated after the incubation period, and DMSO was added to the wells. An ELISA plate reader (BioTek Instruments, Inc., USA) was used to quantify the formazan concentration (with the wavelengths of 570 nm). All of the experiments were carried out on three replicates to ensure the measurement repeatability and the IC50 values were also calculated using GraphPad Prism software."}, "[3]": {"tested_on": "AGO1522 cells", "assay": "MTT cell viability assay, AGO1522 normal fibroblasts", "assay_type": "cell-based", "conditions": "Homo sapiens, Fibroblast, mean ± SD of triplicate", "experimental": "as §1, §2"}, "[4]": {"tested_on": "caspase-3 in MDA-MB-468 cells", "assay": "Caspase-3 activity, DEVD-AFC fluorometric assay", "assay_type": "cell-based, human", "conditions": "14.97 μM, 24 h, MDA-MB-468, vs untreated", "experimental": "From a mechanistic point of view, caspase 3 as a member of the cysteine-aspartic protease family is essential for a variety of biological activities, including apoptosis in mammalian cells (Skiba et al., 2019). To confirm the drug triggers apoptosis, the level of 7-amino-4-trifluoromethyl-coumarin (AFC) from DEVD-AFC, a marker of caspase 3 activation, was measured using Caspase-3/CPP32 Fluorometric Assay Kit (BioVision Research Products, Mountain View, CA, USA). Briefly, MDA-MB-468 cells (a density of 7.5 × 10^3 per well in 96-wells plate) were treated with 14.97 μM 3f for 24 h. The following day, cells were collected, washed two times in PBS and lysed in lysis buffer (for 10 min on ice). The concentration of protein was assessed and 50 µL of supernatant containing 50-200 µg protein was added to the 50 µL of 2x reaction buffer and 5 μl of DEVD-AFC substrate (1 mM), in a 96-wells plate. The mixture was then left at 37°C for 2 hours followed by monitoring the fluorescence intensity using a fluorescent microplate reader (BioTek Synergy HT, Winooski, VT, USA)."}, "[5]": {"tested_on": "MDA-MB-468 cells", "assay": "Intracellular ROS detection with DCFH-DA", "assay_type": "cell-based, human", "conditions": "14.97 μM, 24 h, MDA-MB-468, DCFH-DA fluorimetry, vs untreated", "experimental": "The level of intracellular ROS corresponded to the MDA-MB-468 cells in response to the 3f compound was monitored by using DCFH-DA. Briefly, 7.5 × 10^3 MDA-MB-468 cells were seeded per well of 96-wells plate and allowed to attach to the bottom of the wells for an overnight followed by treatment with 3f compound at a concentration of 14.7 μM. After incubation of cells for 24 h, PBS was used for rinsing and then cells incubated in the presence of DCFH-DA for 30 min at 37°C. Next, to remove the extracellular DCFH-DA, cells were washed three times with prechilled PBS. Finally, the fluorescent of collected cells was analyzed by using a fluorescent microplate reader (BioTek Synergy HT, Winooski, VT, USA)."}, "[6]": {"tested_on": "MDA-MB-468 cells", "assay": "Annexin V-FITC/PI apoptosis detection by flow cytometry", "assay_type": "cell-based, human", "conditions": "14.97 µM, 24 h, MDA-MB-468, compared with untreated cells", "experimental": "Annexin V-FITC/PI Apoptosis Detection Kit was employed to detect apoptosis. To assess the number of apoptotic cells, an aliquot of MDA-MB-468 cells was adjusted to obtain 2 × 10^5 cells per well in six-well plates followed by incubation for an overnight. After incubation cells on the surface for an appropriate time, compound 3f was added to the wells to obtain the final concentration of 14.7μM in wells for 24 h. Cells were then harvested from the culture wells by aspirating media and washing with ice-cold PBS. Once the cells have detached, resuspended cells were pipetted up and down thoroughly followed by transferring to a sterilized 5 ml centrifuge tube. After 15min, 400 µl of the binding buffer was added to the cell suspension. Then annexin V-FITC and PI staining solution were added to the tubes. The cell suspension was then placed in a dark place (10 min at room temperature). A flow cytometer (BD Biosciences, San Jose, CA) was used to analyze the cells. The analysis of data was made using FlowJo software."}, "[7]": {"conditions": "Homo sapiens, MDA-MB-468, 24 h, 24 h treatment, read-out: IC50, MDA-MB-468, 24 hours"}, "[8]": {"conditions": "Homo sapiens, MDA-MB-468, 48 h, 48 h treatment, read-out: IC50, MDA-MB-468, 48 hours"}, "[9]": {"conditions": "24 h treatment, read-out: IC50, AGO1522, 24 hours"}, "[10]": {"conditions": "48 h treatment, read-out: IC50, AGO1522, 48 hours"}},
  "note": "Values joined by “and” are separate entries in the source; they are usually repeats but may differ in a detail not shown here. Equal values may be shown once. Read-outs that look alike come from different tables or passages of the source.",
  "data": [
    {"smiles": "COc1ccc(C2=NN(c3ccc(C)cc3)C(c3cc(OC)c(OC)c(OC)c3)C2)cc1", "note": "(stereo not drawn) [3f, 3-(4-methoxyphenyl)-1-(p-tolyl)-5-(3,4,5-trimethoxyphenyl)-4,5-dihydro-1H-Pyrazole]", "values": [
      {"measurement": "G1 cell fraction", "setting": "[1]", "result": 50.52, "unit": "%"},
      {"measurement": "G2 cell fraction", "setting": "[1]", "result": 6.28, "unit": "%"},
      {"measurement": "S phase cell fraction", "setting": "[1]", "result": "35% and 35.01%"},
      {"measurement": "Sub-G1 cell fraction", "setting": "[1]", "result": 8.12, "unit": "%"},
      {"measurement": "Super-G2 cell fraction", "setting": "[1]", "result": 0.07, "unit": "%"},
      {"measurement": "cell cycle effect", "setting": "[1]", "result": "induced cell cycle arrest in S phase"},
      {"measurement": "Sub-G1 cell fraction", "setting": "[1]; as worded in text", "result": 8.12, "unit": "%"},
      {"measurement": "IC50", "setting": "[2]; 48 h treatment, read-out: IC50, MDA-MB-468, 48 hours", "result": "6.45 ± 0.84", "unit": "µM"},
      {"measurement": "IC50", "setting": "[2]; [7]", "result": "15 ± 1.09", "unit": "µM"},
      {"measurement": "IC50", "setting": "[2]; [8]", "result": 6.4, "unit": "µM"},
      {"measurement": "IC50", "setting": "[3]; [9]", "result": "28.7 ± 1.2", "unit": "µM"},
      {"measurement": "IC50", "setting": "[3]; [10]", "result": "20.3 ± 0.83", "unit": "µM"},
      {"measurement": "caspase-3 activity", "setting": "[4]", "result": "significantly increased"},
      {"measurement": "intracellular ROS level", "setting": "[5]", "result": "ascending trend"},
      {"measurement": "apoptosis value", "setting": "[6]", "result": 38, "unit": "%"}
    ]},
    {"smiles": "COc1ccc(C2=NN(c3ccc(Cl)cc3)C(c3cc(OC)c(OC)c(OC)c3)C2)cc1", "note": "(stereo not drawn) [3g, 1-(4-chlorophenyl)-3-(4-methoxyphenyl)-5-(3,4,5-trimethoxyphenyl)-4,5-dihydro-1HPyrazole]", "values": [
      {"measurement": "IC50", "setting": "[2]; [7]", "result": "25.8 ± 0.91", "unit": "µM"},
      {"measurement": "IC50", "setting": "[2]; [8]", "result": "8.5 ± 0.89", "unit": "µM"},
      {"measurement": "IC50", "setting": "[3]; [9]", "result": "43.3 ± 0.96", "unit": "µM"},
      {"measurement": "IC50", "setting": "[3]; [10]", "result": "34 ± 1.92", "unit": "µM"}
    ]},
    {"smiles": "COc1cc(-c2cc(-c3ccccc3)nn2-c2ccccc2)cc(OC)c1OC", "note": "[4a, 1,3-diphenyl-5-(3,4,5-trimethoxyphenyl)-1H-Pyrazole]", "values": [
      {"measurement": "IC50", "setting": "[2]; [7]", "result": "19.4 ± 1.14", "unit": "µM"},
      {"measurement": "IC50", "setting": "[2]; [8]", "result": "11 ± 0.88", "unit": "µM"},
      {"measurement": "IC50", "setting": "[3]; [9]", "result": "31.2 ± 1.24", "unit": "µM"},
      {"measurement": "IC50", "setting": "[3]; [10]", "result": "14.5 ± 0.97", "unit": "µM"}
    ]},
    {"smiles": "COc1ccc(-c2cc(-c3cc(OC)c(OC)c(OC)c3)n(-c3ccc(C)cc3)n2)cc1", "note": "[4b, 3-(4-methoxyphenyl)-1-(p-tolyl)-5-(3,4,5-trimethoxyphenyl)-1H-Pyrazole]", "values": [
      {"measurement": "IC50", "setting": "[2]; [7]", "result": "58.2 ± 1.35", "unit": "µM"},
      {"measurement": "IC50", "setting": "[2]; [8]", "result": "12 ± 0.94", "unit": "µM"},
      {"measurement": "IC50", "setting": "[3]; [9]", "result": "34.6 ± 0.89", "unit": "µM"},
      {"measurement": "IC50", "setting": "[3]; [10]", "result": "27 ± 0.79", "unit": "µM"}
    ]},
    {"smiles": "COc1ccc(-c2cc(-c3cc(OC)c(OC)c(OC)c3)n(-c3ccc(Cl)cc3)n2)cc1", "note": "[4c, 1-(4-chlorophenyl)-3-(4-methoxyphenyl)-5-(3,4,5-trimethoxyphenyl)-1H-Pyrazole]", "values": [
      {"measurement": "IC50", "setting": "[2]; [7]", "result": "28.8 ± 0.98", "unit": "µM"},
      {"measurement": "IC50", "setting": "[2]; [8]", "result": "12.4 ± 0.79", "unit": "µM"},
      {"measurement": "IC50", "setting": "[3]; [9]", "result": "25.2 ± 0.88", "unit": "µM"},
      {"measurement": "IC50", "setting": "[3]; [10]", "result": "20.9 ± 0.92", "unit": "µM"}
    ]},
    {"smiles": "COc1ccc(-c2cc(-c3cc(OC)c(OC)c(OC)c3)n(-c3ccc(F)cc3)n2)cc1", "note": "[4d, 1-(4-fluorophenyl)-3-(4-methoxyphenyl)-5-(3,4,5-trimethoxyphenyl)-1H-Pyrazole]", "values": [
      {"measurement": "IC50", "setting": "[2]; [7]", "result": "58.6 ± 1.32", "unit": "µM"},
      {"measurement": "IC50", "setting": "[2]; [8]", "result": "24.5 ± 1.17", "unit": "µM"},
      {"measurement": "IC50", "setting": "[3]; [9]", "result": "34.4 ± 1.31", "unit": "µM"},
      {"measurement": "IC50", "setting": "[3]; [10]", "result": "27.3 ± 0.94", "unit": "µM"}
    ]},
    {"smiles": "CC(=O)O[C@H]1C(=O)[C@@]2(C)[C@H]([C@H](OC(=O)c3ccccc3)[C@]3(O)C[C@H](OC(=O)[C@H](O)[C@@H](NC(=O)c4ccccc4)c4ccccc4)C(C)=C1C3(C)C)[C@]1(OC(C)=O)CO[C@@H]1C[C@@H]2O", "note": "[Paclitaxel, reference compound]", "values": [
      {"measurement": "IC50", "setting": "[2]; [7]", "result": "49.9 ± 0.97", "unit": "µM"},
      {"measurement": "IC50", "setting": "[2]; [8]", "result": "25.2 ± 1.27", "unit": "µM"},
      {"measurement": "IC50", "setting": "[3]; [9]", "result": "42.9 ± 1.42", "unit": "µM"},
      {"measurement": "IC50", "setting": "[3]; [10]", "result": "22.6 ± 0.91", "unit": "µM"}
    ]}
  ]
}
